# In patent US9682060B2, “Small molecules that induce intrinsic pathway apoptosis” (The Board of Trustees of the University of Illinois, priority 2015, dated 2017):
# “Also recorded” adds a separate entry of the source.
# How the values were obtained:
# [1] = target: T1, recombinant procaspase-3 (Homo sapiens, UniProt P42574); assay: In vitro activation of procaspase-3; type: biochemical; conditions: up to 100 μM; 250 nM procaspase-3; Ac-DEVD-AFC cleavage
# T1 construct: His tag (inferred from the nickel-NTA purification); made in house
# T1 sequence (P42574 whole entry): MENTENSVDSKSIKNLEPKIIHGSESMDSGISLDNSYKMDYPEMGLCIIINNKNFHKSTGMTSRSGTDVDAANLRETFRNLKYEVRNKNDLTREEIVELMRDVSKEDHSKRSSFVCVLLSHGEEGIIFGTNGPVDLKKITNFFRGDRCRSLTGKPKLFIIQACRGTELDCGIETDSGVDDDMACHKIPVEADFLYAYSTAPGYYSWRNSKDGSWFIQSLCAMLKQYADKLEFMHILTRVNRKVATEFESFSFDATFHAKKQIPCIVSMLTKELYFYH
# Method: In Vitro Activation of Procaspase-3.
# Procaspase-3 was expressed as described previously and purified with Qiagen nickel-NTA resin (Hsu et al., 2012). Increasing concentrations of Raptinal (0, 10, 25, 50 and 100 μM) and 25 μM 1541B were assessed for their capacity to enhance the activity of procaspase-3 over time. 250 nM procaspase-3 was treated with compounds in caspase activity buffer (50 mM HEPES, 50 mM KCl, 0.1 mM EDTA, 10 mM DTT, 0.01% Triton X-100, pH 7.4) and activity was assessed by cleavage of Ac-DEVD-AFC (50 μM) at designated time points.
# [2] = tested on: caspase-3/-7; assay: Caspase activity assay in cell lysate (Ac-DEVD-AFC); type: cell-based; conditions: 10 μM
# [3] = tested on: B16-F10 melanoma; assay: Syngeneic subcutaneous tumor model; type: in vivo, C57BL/6 mice; conditions: 20 mg/kg IP once daily for 3 days
# Method: All animal studies were performed with prior approval by the University of Illinois at Urbana-Champaign IACUC committee. […]. Seven days (for B16-F10) and six days (for 4T1) after inoculation, the mice were randomized based upon tumor size with 7 mice per group. Vehicle or compound was administered intraperitoneally as a corn oil DMSO suspension (300 μL of 10% DMSO in trans fat-free corn oil, 20 mg/kg) once daily for 3 consecutive days for B16-F10 and 4 consecutive days for 4T1 models. Tumor measurements were performed every other day using a caliper and tumor volume was calculated using the equation (0.5×l×w^2).
# [4] = tested on: HL-60 VCR; assay: Raptinal toxicity in various cell lines, 24 hour IC50; type: cell-based; conditions: HL60/VCR; HL-60 VCR (Human Leukemia Vincristine Resistant); 24 hour incubation; mean ± SD
# Method: (§1) MTS Assay for Suspension Cells.
# (§2) Serial dilutions of compound in 100% DMSO were added in triplicate (2 μL to each well) to empty wells of a 96-well plate. Suspension cells (HL-60, U-937, SKW 6.4, Jurkat W T, Jurkat CASP8^−/−, Jurkat FADD^−/−, Jurkat Bcl-2) cells in RPMI 1640 media were added to 96-well plates (198 μL containing 4×10^4 cells) and the cells incubated for 24 hours.
# [5] = type: in vivo, C57BL/6 mice; conditions: mice; single-dose intravenous 15-60 mg/kg
# Method: Pharmacokinetics and Toxicity Profiling in Mice.
# All animal studies were performed with prior approval by the University of Illinois at Urbana-Champaign IACUC committee. Eight week old female C57BL/6 mice were used for all pharmacokinetic and toxicity experiments. […]. For toxicity assessment, Raptinal was administered intravenously as a single-dose injection across a dose range of 15-60 mg/kg, and mice were sacrificed 7 days post-injection for evidence of hematologic toxicity (n=3 mice/group).
# [6] = tested on: U-937 cells; type: cell-based, Human; conditions: 20 minute treatment, dihydroethidium, flow cytometry
# Method: Measurement of Cellular ROS Production.
# U-937 cells (1 mL of 5×10^5 cells/mL) in Hank's buffered salt solution (HBSS) containing 5 mM glucose were treated with DMSO, 2 or 10 μM Raptinal, 10 μM thapsigargin, 100 μM etoposide (1% DMSO final) and incubated in the presence of 5 μM dihydroethidium a 37° C., 5% CO2 incubator for 20 minutes. […]. The levels of ethidium were assessed by flow cytometry. Live cells were analyzed based on gating on the forward and side scatter properties and the geometric mean of ethidium staining was determined using the software FCS Express.
# [7] = tested on: various cancer and non-cancerous cell lines; assay: 24 hour IC50 across various cancer and non-cancerous cell lines; type: cell-based; conditions: various cancer and non-cancerous cell lines (Table 1, FIG. 4D)
# Method: as §1, §2
# Sulforhodamine B Assay for Adherent Cells.
# Serial dilutions of compound in 100% DMSO were added in triplicate (2 μL to each well) to empty wells of a 96-well plate. Adherent cells (3T3, Hs888Lu, MCF-7, HeLa, WT-MEF, 4T1, B16-F10, SK-MEL-5, MIA PaCa2, BT-549, MDA-MB-436, 143B, HOS, H460, H1993) cells were added to each well (5×10^3 cells in 198 μL of RPMI 1640, DMEM or EMEM media). The plates were incubated for 24 hours. The media was removed from the plate and ice-cold trichloroacetic acid (100 μL of 10% w/v trichloroacetic acid) was added to the plates which were then incubated at 4° C. overnight to fix the cells. […] The bound dye was released by the addition of unbuffered Tris-base (200 μL of 10 mM solution) and after a 30 min incubation at room temperature the absorbance at 510 nm was measured (Molecular Devices SpectraMax Plus 384 plate reader). The mean IC50 values and standard deviations were determined from three independent experiments.
compound,measurement,setting,value
"O=CC1(C2(C=O)c3ccccc3-c3ccccc32)c2ccccc2-c2ccccc21 [Raptinal, [9,9′]bifluorenyl-9,9′-dicarbaldehyde]",direct activation of recombinant procaspase-3 (enzymatic activity),[1],does not directly activate; also recorded: no increase in enzymatic activity
same,induction of caspase-3/-7 activity compared to other apoptosis inducing agents,[2],faster induction of caspase-3/-7 activity and higher peak levels
same,retardation of tumor mass relative to controls,[3],60%
same,retardation of tumor volume relative to controls,[3],60%
same,IC50,[4],1.6 ± 0.5 µM
same,tolerability,[5],well tolerated
same,production of reactive oxygen species (superoxide anion radicals),[6],rapid accumulation of superoxide anion radicals; also recorded: observed
same,IC50,[7],0.7 to 3.4 µM
